Measurements from ChEMBL document CHEMBL4765274, “The development of advanced structural framework as multi-target-directed ligands for the treatment of Alzheimer's disease” (Eur J Med Chem, 2020).
Calls of active or inactive are those of the source. No cut-off for these calls is given here.

Assays:
Danio rerio [1] = organism: Danio rerio; experiment: Antialzheimer activity in Alcl3-induced zebra fish AD model assessed as increase in motility at 0.09 ug/ml relative to control; assay type: functional; conditions: dose 0.09 µg/ml
SH-SY5Y = experiment: Neuroprotective activity against amyloid beta (1 to 42 residues)-induced cytotoxicity in human SH-SY5Y cells assessed as increase in cell viability at 1 to 10 uM incubated for 48 hrs by MTT assay; assay type: functional, cell-based; conditions: dose 1-10 µM
[2] = Toxicity in 3 dpf zebra fish assessed as mortality at 100 ug/ml (reference value: 0%); parameters: species or system Danio rerio; conditions: zebrafish, at 100 µg/mL, read-out: Activity
PC-12 = experiment: Cytotoxicity against rat PC-12 cells assessed as reduction in cell viability up to 100 uM after 48 hrs by MTT assay; assay type: cell-based; conditions: pc-12, 48 h
[3] = Toxicity in 3 dpf zebra fish assessed as mortality at 6.25 ug/ml (reference value: 0%); parameters: species or system Danio rerio; conditions: zebrafish, at 6.25 µg/mL, read-out: Activity
[4] = Toxicity in 3 dpf zebra fish assessed as mortality at 0.78 ug/ml (reference value: 0%); parameters: species or system Danio rerio; conditions: zebrafish, at 0.78 µg/mL, read-out: Activity
Cholinesterase [5] = molecular target: T1, Cholinesterase (Homo sapiens, UniProt P06276); experiment: Reversible inhibition of human BChE assessed as residual activity at IC50 concentration relative to control
T1 sequence (P06276 whole entry): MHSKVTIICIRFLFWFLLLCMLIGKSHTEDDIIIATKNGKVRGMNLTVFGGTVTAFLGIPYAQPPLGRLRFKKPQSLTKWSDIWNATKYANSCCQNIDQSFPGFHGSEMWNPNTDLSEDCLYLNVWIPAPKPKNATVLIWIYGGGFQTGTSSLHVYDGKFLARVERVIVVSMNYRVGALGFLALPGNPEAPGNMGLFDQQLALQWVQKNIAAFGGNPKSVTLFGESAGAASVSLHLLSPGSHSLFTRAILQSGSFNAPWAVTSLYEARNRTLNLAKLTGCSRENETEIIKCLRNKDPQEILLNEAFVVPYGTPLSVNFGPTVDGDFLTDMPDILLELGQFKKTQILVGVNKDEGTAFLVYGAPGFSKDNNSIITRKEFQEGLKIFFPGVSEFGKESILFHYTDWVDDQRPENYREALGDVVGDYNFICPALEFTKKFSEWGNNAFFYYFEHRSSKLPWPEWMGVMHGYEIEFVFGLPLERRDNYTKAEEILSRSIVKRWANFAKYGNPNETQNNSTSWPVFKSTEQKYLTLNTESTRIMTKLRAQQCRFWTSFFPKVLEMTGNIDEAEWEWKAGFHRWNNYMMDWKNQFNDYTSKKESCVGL

[6] = Toxicity in 3 dpf zebra fish assessed as blood flow retardation at 1.56 ug/ml; assay type: tissue-based, Danio rerio; conditions: zebrafish, dose 1.56 µg/ml
HT-22 [7] = experiment: Activation of ubiquitin-proteasome system in mouse HT-22 cells expressing pRK5-GFP-Tau assessed as increase in tau degradation by measuring reduction in GFP level at 2.5 to 20 uM after 24 hrs by Western blot analysis; assay type: cell-based; conditions: filed as activator, dose 2.5-20 µM
Danio rerio [8] = organism: Danio rerio; experiment: Antialzheimer activity in Alcl3-induced zebra fish AD model assessed as increase dyskinesia recovery rate at 0.09 ug/ml relative to control; assay type: functional; conditions: dose 0.09 µg/ml
[9] = Toxicity in 2 dpf zebra fish assessed as yolk sac absorption delay at 8.33 ug/ml after 3 days relative to control; parameters: species or system Danio rerio; conditions: zebrafish, 72 h, at 8.33 µg/mL, time 3 day
[10] = Toxicity in 2 dpf zebra fish assessed as yolk sac absorption delay at 25 ug/ml after 3 days relative to control; parameters: species or system Danio rerio; conditions: zebrafish, 72 h, at 25 µg/mL, time 3 day
Mus musculus [11] = experiment: Antialzheimer activity in scopolamine-induced Kunming mouse model of memory impairment assessed as total mapped in brain hippocampus at 5 mg/kg , po by illumina sequencing method (reference value: 97.13%); assay type: functional
Danio rerio [12] = organism: Danio rerio; experiment: Antialzheimer activity in amyloid beta (1 to 40 residues)-induced zebra fish AD model assessed as reduction in vascular injury at 0.78 ug/ml relative to control; assay type: functional; parameters: scale not given: the % may be the effect or the level left; conditions: dose 0.78 µg/ml
[13] = Toxicity in 2 dpf zebra fish assessed as bradycardia at 25 ug/ml after 3 days relative to control; parameters: species or system Danio rerio; conditions: zebrafish, 72 h, at 25 µg/mL, time 3 day
Cholinesterase [14] = molecular target: T1, Cholinesterase; experiment: Inhibition of human serum BChE by Ellman's method; assay type: cell-free
[15] = Inhibition of self-induced amyloid beta (1 to 42 residues) (unknown origin) aggregation by thioflavin T based fluorescence assay; parameters: species or system Homo sapiens; conditions: read-out: IC50
HT-22 [16] = experiment: Activation of ubiquitin-proteasome system in mouse HT-22 cells expressing YFP-CLI assessed as reduction in GFP level at 10 uM after 24 hrs by flow cytometric analysis; assay type: cell-based; conditions: filed as activator
[17] = Metal chelating activity assessed as Fe2+-compound complex formation in water at 37.5 uM by UV-Visible spectra analysis
[18] = Toxicity in 2 dpf zebra fish assessed as short or misshapen eye at 25 ug/ml after 3 days relative to control; parameters: species or system Danio rerio; conditions: zebrafish, 72 h, at 25 µg/mL, time 3 day
[19] = Metal chelating activity assessed as Fe2+-compound complex formation in PBS buffer at pH 7.4 at 37.5 uM by UV-Visible spectra analysis
Cholinesterase [20] = molecular target: T1, Cholinesterase; experiment: Reversible inhibition of human BChE assessed as residual activity at 0.1 times of IC50 concentration relative to control
Mus musculus [21] = experiment: Antialzheimer activity in scopolamine-induced Kunming mouse model of memory impairment assessed as Q30 bases ratio (QC data) in brain hippocampus at 5 mg/kg , po by illumina sequencing method (reference value: 96.67%); assay type: functional
[22] = Metal chelating activity assessed as Al3+-compound complex formation in methanol at 37.5 uM by UV-Visible spectra analysis
[23] = Metal chelating activity assessed as Al3+-compound complex formation in PBS buffer at pH 7.4 at 37.5 uM by UV-Visible spectra analysis
Cholinesterase [24] = molecular target: Cholinesterase (Equus caballus, UniProt P81908); experiment: Inhibition of equine serum BChE by Ellman's method; assay type: cell-free
Chain of Cholinesterase (Equus caballus, UniProt P81908) (P81908 whole entry): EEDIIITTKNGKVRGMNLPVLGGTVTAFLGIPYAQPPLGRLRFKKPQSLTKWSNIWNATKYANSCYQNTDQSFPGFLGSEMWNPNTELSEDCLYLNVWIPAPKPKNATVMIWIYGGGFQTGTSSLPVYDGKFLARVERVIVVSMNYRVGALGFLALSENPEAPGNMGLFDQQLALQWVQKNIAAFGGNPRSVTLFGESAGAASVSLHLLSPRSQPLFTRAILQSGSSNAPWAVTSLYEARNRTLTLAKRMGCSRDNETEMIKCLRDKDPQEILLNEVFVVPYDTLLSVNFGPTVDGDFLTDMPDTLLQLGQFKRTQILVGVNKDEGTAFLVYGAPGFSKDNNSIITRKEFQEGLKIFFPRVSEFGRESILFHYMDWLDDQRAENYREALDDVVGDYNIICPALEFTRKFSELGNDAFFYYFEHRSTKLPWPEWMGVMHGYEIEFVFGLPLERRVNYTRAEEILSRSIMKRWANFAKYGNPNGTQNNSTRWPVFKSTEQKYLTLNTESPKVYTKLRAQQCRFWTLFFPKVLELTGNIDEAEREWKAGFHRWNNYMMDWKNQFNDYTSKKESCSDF

HT-22 [25] = experiment: Activation of ubiquitin-proteasome system in mouse HT-22 cells expressing pRK5-GFP-Tau assessed as increase in tau degradation by measuring reduction in GFP level after 24 hrs by fluorescence microscopic method; assay type: cell-based; conditions: filed as activator, dose 2.5-20 µM
[26] = Inhibition of Cu2+-induced amyloid beta (unknown origin) aggregation after 24 hrs by TEM analysis
[27] = Toxicity in 2 dpf zebra fish assessed as absent blood flow at 25 ug/ml after 3 days relative to control; assay type: tissue-based, Danio rerio; conditions: zebrafish, 72 h, at 25 µg/mL, time 3 day
[28] = Toxicity in 2 dpf zebra fish assessed as pericardial edema at 25 ug/ml after 3 days relative to control; parameters: species or system Danio rerio; conditions: zebrafish, 72 h, at 25 µg/mL, time 3 day
HT-22 [29] = experiment: Activation of ubiquitin-proteasome system in mouse HT-22 cells expressing pEGFP-N1-APP assessed as increase in APP degradation by measuring reduction in GFP level at 2.5 to 20 uM after 24 hrs by fluorescence microscopic method; assay type: cell-based; conditions: filed as activator, dose 2.5-20 µM
[30] = Toxicity in 2 dpf zebra fish assessed as short or misshapen jaw at 25 ug/ml after 3 days relative to control; parameters: species or system Danio rerio; conditions: zebrafish, 72 h, at 25 µg/mL, time 3 day
U-87MG ATCC = experiment: Induction of autophagy in human U87 cells stably transfected GFP-LC3 assessed as increase in GFP-LC3 puncta formation at 10 uM after 24 hrs by fluorescence microscopic method; assay type: functional, cell-based
[31] = Toxicity in 2 dpf zebra fish assessed as degenerating muscle within the somites at 25 ug/ml after 3 days relative to control; parameters: species or system Danio rerio; conditions: zebrafish, 72 h, at 25 µg/mL, time 3 day
Cholinesterase [32] = molecular target: T1, Cholinesterase; experiment: Inhibition of human BChE assessed as residual activity at IC50 concentration relative to control
Acetylcholinesterase = Acetylcholinesterase (Electrophorus electricus, UniProt O42275); experiment: Inhibition of electric eel AChE by Ellman's method
Chain of Acetylcholinesterase (O42275 whole entry): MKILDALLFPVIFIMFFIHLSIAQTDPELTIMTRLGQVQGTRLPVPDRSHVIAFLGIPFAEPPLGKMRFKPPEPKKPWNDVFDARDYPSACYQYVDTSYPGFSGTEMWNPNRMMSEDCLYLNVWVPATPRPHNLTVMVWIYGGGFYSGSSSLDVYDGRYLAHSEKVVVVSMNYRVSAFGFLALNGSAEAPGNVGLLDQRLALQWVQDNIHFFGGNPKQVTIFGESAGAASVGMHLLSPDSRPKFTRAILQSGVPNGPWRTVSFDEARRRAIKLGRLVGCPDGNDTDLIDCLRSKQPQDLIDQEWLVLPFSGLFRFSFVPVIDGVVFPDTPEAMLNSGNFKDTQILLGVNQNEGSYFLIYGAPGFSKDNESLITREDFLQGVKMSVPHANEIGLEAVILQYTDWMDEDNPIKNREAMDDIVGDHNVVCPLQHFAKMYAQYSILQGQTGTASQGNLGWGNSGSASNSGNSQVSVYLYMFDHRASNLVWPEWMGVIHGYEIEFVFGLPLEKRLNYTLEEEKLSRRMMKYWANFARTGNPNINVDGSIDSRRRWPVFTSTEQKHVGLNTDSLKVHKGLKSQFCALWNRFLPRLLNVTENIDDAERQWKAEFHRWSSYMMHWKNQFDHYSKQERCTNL

[33] = Metal chelating activity assessed as Zn2+-compound complex formation in water at 37.5 uM by UV-Visible spectra analysis
[34] = Disaggregation of Cu2+ induced amyloid beta (unknown origin) aggregation after 48 hrs by TEM analysis
Danio rerio [35] = organism: Danio rerio; experiment: Antialzheimer activity in Alcl3-induced zebra fish AD model assessed as increase in motility at 0.26 ug/ml relative to control; assay type: functional; conditions: dose 0.26 µg/ml
[36] = Drug metabolism in rat liver microsomes assessed as metabolite formation by UPLC-TOF analysis; assay type: ADME, Microsome
HT-22 [37] = experiment: Activation of ubiquitin-proteasome system in mouse HT-22 cells expressing pRK5-GFP-Tau P301L mutant assessed as increase in tau degradation by measuring reduction in GFP level at 2.5 to 20 uM after 24 hrs by flow cytometric analysis; assay type: cell-based; conditions: filed as activator, dose 2.5-20 µM

CCN(CCCCOc1ccc(-c2cc(=O)c3c(O)cc(OCCCCN(CC)Cc4ccccc4)cc3o2)cc1)Cc1ccccc1
Activity (Danio rerio [1]): 72%
Activity (SH-SY5Y): Active
mortality at 100 ug/ml [2]: 100%
Activity (PC-12): Non-Toxic
mortality at 6.25 ug/ml [3]: 100%
mortality at 0.78 ug/ml [4]: 0%
Activity (Cholinesterase [5]): 42.3%
Activity [6]: Toxic
Activity (HT-22 [7]): Active
Activity (Danio rerio [8]): 67%
Activity [9]: 73.3%
Activity [10]: 100%
Activity (Mus musculus [11]): 97.39%
Activity (Danio rerio [12]): 0%
Activity [13]: 66.7%
IC50 (Cholinesterase [14]): 15.3 µM
IC50 [15]: 5.8 µM
Activity (HT-22 [16]): Active
Activity [17]: inactive
Activity [18]: 433%
Activity [19]: Active
Activity (Cholinesterase [20]): 50%
Activity (Mus musculus [21]): 96.56%
Activity [22]: Active
Activity [23]: inactive
IC50 (Cholinesterase [24]): 9.6 µM
Activity (HT-22 [25]): Dose-dependent effect
inhibition [26]: Active
Activity [27]: 53.3%
Activity [28]: 60%
Activity (HT-22 [29]): Active
Activity [30]: 56.7%
Activity (U-87MG ATCC): Active
Activity [31]: 33.3%
Activity (Cholinesterase [32]): 49.7%
IC50 (Acetylcholinesterase): 3.7 µM
Activity [33]: inactive
Activity [34]: Active
Activity (Danio rerio [35]): 81%
Drug metabolism [36]: Metabolite_Detected
Activity (HT-22 [37]): Active
